{
  "source": "patent US9180118B2",
  "about": "“Thiadiazolidinone derivatives” (University of Rochester, priority 2006, dated 2015)",
  "origin": "cited, not measured here",
  "target": "PICA (Homo sapiens, UniProt P17612)",
  "conditions": "reported; cited from earlier work",
  "data": [
    {"molecule": "Cn1sc(=O)n(Cc2ccccc2)c1=O", "note": "[TDZD-8, 4-benzyl-2-methyl-1,2,4-thiadiazolidine-3,5-dione]", "values": [
      {"measurement": "IC50", "value": "> 100", "unit": "µM"}
    ]}
  ]
}
